Test results from the NIST ThermoML archive (doi:10.1016/j.jct.2017.04.007).

Conditions: Liquid; for speed of sound: Frequency=3 MHz, Pulse-echo method; for mass density: Vibrating tube method

CCOC(F)(C(F)(F)C(F)(F)C(F)(F)F)C(F)(C(F)(F)F)C(F)(F)F (stereo not drawn) [2-trifluoromethyl-3-ethoxydodecafluorohexane]
Conditions | mass density, 293.15 K [kg/m3] | mass density, 303.15 K [kg/m3] | mass density, 313.15 K [kg/m3] | mass density, 323.15 K [kg/m3] | mass density, 333.15 K [kg/m3] | speed of sound, 293.15 K [m/s] | speed of sound, 303.15 K [m/s] | speed of sound, 313.15 K [m/s] | speed of sound, 323.15 K [m/s] | speed of sound, 333.15 K [m/s]
100 kPa | 1630.2 | 1609.7 | 1588.6 | 1567.3 | 1545.6 | 673.7 | 643.7 | 616.7 | 588.4 | 561.4
10000 kPa | 1654 | 1635.5 | 1616.6 | 1597.6 | 1578.4 | – | – | – | – | –
20000 kPa | 1674.8 | 1657.8 | 1640.2 | 1622.7 | 1605.3 | 781.1 | 755.3 | 732.2 | 709.6 | 688.4
30000 kPa | 1693.3 | 1677.3 | 1660.7 | 1644.3 | 1628.1 | – | – | – | – | –
40000 kPa | 1709.8 | 1694.6 | 1678.9 | 1663.4 | 1648.2 | 865.8 | 842.8 | 822 | 802.1 | 783.3
50000 kPa | 1724.9 | 1710.4 | 1695.4 | 1680.6 | 1666.2 | – | – | – | – | –
60000 kPa | 1738.8 | 1724.9 | 1710.5 | 1696.4 | 1682.6 | 938.1 | 916.9 | 897.4 | 878.6 | 861.5
70000 kPa | 1751.7 | 1738.4 | 1724.6 | 1710.9 | 1697.7 | – | – | – | – | –
80000 kPa | 1763.9 | 1750.9 | 1737.1 | 1724.2 | 1711.6 | 1001.8 | 981.3 | 963 | 945.6 | 929.1
90000 kPa | 1775.4 | 1762.8 | 1749.7 | 1736.8 | 1724.6 | – | – | – | – | –
100000 kPa | 1786.2 | 1773.9 | 1761.2 | 1748.7 | 1736.9 | 1058 | 1038.5 | 1021.7 | 1004.9 | 989.3
110000 kPa | 1796.5 | 1784.5 | 1772.2 | 1760 | 1748.2 | – | – | – | – | –
120000 kPa | 1806.3 | 1794.5 | 1782.5 | 1770.6 | 1759.3 | – | – | – | – | –
130000 kPa | 1815.8 | 1804.2 | 1792.5 | 1780.7 | – | – | – | – | – | –
140000 kPa | 1824.9 | 1813.4 | 1802 | 1790.5 | – | – | – | – | – | –
